Measured values reported in BindingDB's records for doi:10.1021/jm960581w (Sphinx Laboratories, 1996).

molecular target: cAMP-dependent protein kinase catalytic subunit alpha (Bos taurus, UniProt P00517); experiment: PKA assay
Method: The activity of PKA, activated by cAMP, is measured by its ability to transfer phosphate from [gamma-32P]ATP to histone.

IC50, > 150 µM:
Cc1ccc(S(=O)(=O)N2CCC[C@@H](OC(=O)c3cc(O)c(C(=O)c4c(O)cccc4C(=O)O)c(O)c3)[C@H](NC(=O)c3ccc(O)cc3)C2)cc1 [2-{[2,6-dihydroxy-4-({[(3R,4R)-3-[(4-hydroxybenzene)amido]-1-[(4-methylbenzene)sulfonyl]azepan-4-yl]oxy}carbonyl)phenyl]carbonyl}-3-hydroxybenzoic acid]

IC50, > 50 µM:
O=C(OCC(Cc1ccc(O)cc1)NS(=O)(=O)c1ccc2ccccc2c1)c1cc(O)c(C(=O)c2c(O)cccc2C(=O)O)c(O)c1 (stereo not drawn) [(+-)-2-[[2,6-Dihydroxy-4-[[[3-(4-hydroxyphenyl)-2-[(naphthylsulfonyl)amino]propyl]oxy]carbonyl]phenyl]carbonyl]-3-hydroxybenzoic Acid], O=C(OCCCc1ccc(O)cc1)c1cc(O)c(C(=O)c2c(O)cccc2C(=O)O)c(O)c1 [2-[[2,6-Dihydroxy-4-[[[3-(4-hydroxyphenyl)propyl]oxy]carbonyl]phenyl]carbonyl]-3-hydroxybenzoic Acid], O=C(OC[C@@H](Cc1ccc(O)cc1)NS(=O)(=O)c1ccccc1)c1cc(O)c(C(=O)c2c(O)cccc2C(=O)O)c(O)c1 [2-[(4-{[(2R)-2-benzenesulfonamido-3-(4-hydroxyphenyl)propoxy]carbonyl}-2,6-dihydroxyphenyl)carbonyl]-3-hydroxybenzoic acid], COC(=O)c1cccc(O)c1C(=O)c1c(O)cc(C(=O)O[C@@H]2CCC[C@H]2Cc2ccc(O)cc2)cc1O [(1R,2S)-2-[(4-hydroxyphenyl)methyl]cyclopentyl 3,5-dihydroxy-4-{[2-hydroxy-6-(methoxycarbonyl)phenyl]carbonyl}benzoate], COC(=O)c1cccc(O)c1C(=O)c1c(O)cc(C(=O)OC[C@H](Cc2ccc(O)cc2)NS(=O)(=O)c2ccccc2)cc1O [(S)-Methyl 2-[[2,6-Dihydroxy-4-[[[3-(4-hydroxyphenyl)-2-[(phenylsulfonyl)amino]propyl]oxy]carbonyl]phenyl]carbonyl]-3-hydroxybenzoate], O=C(O[C@@H]1CCC[C@H]1Oc1ccc(O)cc1)c1cc(O)c(C(=O)c2c(O)cccc2C(=O)O)c(O)c1 (racemic) [2-{[2,6-dihydroxy-4-({[(1R,2R)-2-(4-hydroxyphenoxy)cyclopentyl]oxy}carbonyl)phenyl]carbonyl}-3-hydroxybenzoic acid], O=C(OCCCCc1ccc(O)cc1)c1cc(O)c(C(=O)c2c(O)cccc2C(=O)O)c(O)c1 [2-[(2,6-dihydroxy-4-{[4-(4-hydroxyphenyl)butoxy]carbonyl}phenyl)carbonyl]-3-hydroxybenzoic acid], O=C(OCC(COc1ccc(O)cc1)NS(=O)(=O)c1ccccc1)c1cc(O)c(C(=O)c2c(O)cccc2C(=O)O)c(O)c1 (racemic) [2-[(4-{[2-benzenesulfonamido-3-(4-hydroxyphenoxy)propoxy]carbonyl}-2,6-dihydroxyphenyl)carbonyl]-3-hydroxybenzoic acid], O=C(OC[C@H](Cc1ccc(O)cc1)NS(=O)(=O)c1ccccc1)c1cc(O)c(C(=O)c2c(O)cccc2C(=O)O)c(O)c1 [2-[(4-{[(2S)-2-benzenesulfonamido-3-(4-hydroxyphenyl)propoxy]carbonyl}-2,6-dihydroxyphenyl)carbonyl]-3-hydroxybenzoic acid], CS(=O)(=O)NC(COC(=O)c1cc(O)c(C(=O)c2c(O)cccc2C(=O)O)c(O)c1)Cc1ccc(O)cc1 (racemic) [(+-)-2-[[2,6-Dihydroxy-4-[[[3-(4-hydroxyphenyl)-2-[(methylsulfonyl)amino]propyl]oxy]carbonyl]phenyl]carbonyl]-3-hydroxybenzoic Acid], O=C(NC(COC(=O)c1cc(O)c(C(=O)c2c(O)cccc2C(=O)O)c(O)c1)Cc1ccc(O)cc1)c1ccc(O)cc1 (stereo not drawn) [(+-)-2-[[2,6-Dihydroxy-4-[[[3-(4-hydroxyphenyl)-2-[[(4-hydroxyphenyl)carbonyl]amino]propyl]oxy]carbonyl]phenyl]carbonyl]-3-hydroxybenzoic Acid], O=C(OCC(Cc1ccc(O)cc1)NS(=O)(=O)c1ccccc1)c1cc(O)c(C(=O)c2c(O)cccc2C(=O)O)c(O)c1 (racemic) [(+-)-2-[[2,6-Dihydroxy-4-[[[3-(4-hydroxyphenyl)-2-[(phenylsulfonyl)amino]propyl]oxy]carbonyl]phenyl]carbonyl]-3-hydroxybenzoic Acid], O=C(O[C@@H]1CCC[C@@H]1Cc1ccc(O)cc1)c1cc(O)c(C(=O)c2c(O)cccc2C(=O)O)c(O)c1 [2-{[2,6-dihydroxy-4-({[(1R,2R)-2-[(4-hydroxyphenyl)methyl]cyclopentyl]oxy}carbonyl)phenyl]carbonyl}-3-hydroxybenzoic acid], O=C(O[C@@H]1CCC[C@H]1Cc1ccc(O)cc1)c1cc(O)c(C(=O)c2c(O)cccc2C(=O)O)c(O)c1 (racemic) [2-{[2,6-dihydroxy-4-({[(1R,2S)-2-[(4-hydroxyphenyl)methyl]cyclopentyl]oxy}carbonyl)phenyl]carbonyl}-3-hydroxybenzoic acid], CC(CCc1ccc(O)cc1)OC(=O)c1cc(O)c(C(=O)c2c(O)cccc2C(=O)O)c(O)c1 (stereo not drawn) [(+-)-2-[[2,6-Dihydroxy-4-[[[3-(4-hydroxyphenyl)-1-methylpropyl]oxy]carbonyl]phenyl]carbonyl]-3-hydroxybenzoic Acid], CN(C)C(COC(=O)c1cc(O)c(C(=O)c2c(O)cccc2C(=O)O)c(O)c1)Cc1ccc(O)cc1 (racemic) [2-[(4-{[2-(dimethylamino)-3-(4-hydroxyphenyl)propoxy]carbonyl}-2,6-dihydroxyphenyl)carbonyl]-3-hydroxybenzoic acid], O=C(NC(COC(=O)c1cc(O)c(C(=O)c2c(O)cccc2C(=O)O)c(O)c1)Cc1ccc(O)cc1)c1ccccc1 (racemic) [2-[(2,6-dihydroxy-4-{[3-(4-hydroxyphenyl)-2-(phenylformamido)propoxy]carbonyl}phenyl)carbonyl]-3-hydroxybenzoic acid], O=C(OCC(NS(=O)(=O)c1ccccc1)c1ccc(O)cc1)c1cc(O)c(C(=O)c2c(O)cccc2C(=O)O)c(O)c1 (racemic) [2-[(4-{[2-benzenesulfonamido-2-(4-hydroxyphenyl)ethoxy]carbonyl}-2,6-dihydroxyphenyl)carbonyl]-3-hydroxybenzoic acid]
